Source: patent publication US10694742B2, “Composition comprising a pesticide and a hydroxyalkyl polyoxylene glycol ether” (BASF SE, priority 2014, dated 2020)

Key:
Puccinia triticina = experiment: Greenhouse biological activity on infected wheat; assay type: in vivo, Puccinia triticina on wheat (species Kanzler); settings: sprayed three days after infection, rated after ten days, three replicates
Method: The biological activity was assessed in a greenhouse on wheat (species “Kanzler”), which was infected with Puccinia triticina at two leafes stage and incubated for three days at high humidity. The plants were sprayed (spray volume 200 l/ha) with a composition comprising 50 ppm (10 g/ha or 2.5 g/ha dose rate) epoxiconazole and 100 ppm (20 g/ha) of the respective Compounds 1-7. In the comparative example no adjuvant was added. The plants were further cultivated for ten days at 20-24° C. and 60-90% relative humidity. Finally, the percentage of the infected leaf area (pustules) was visually inspected. Each value was based on three replicates.

Wheat plants = experiment: Uptake rate of pesticide into sprayed wheat leaves (HPLC-MS/MS); assay type: in vivo, Triticum aestivum variety Melon; settings: 125 g/ha epoxiconazole, 125 g/ha fluxapyroxad, 250 g/ha adjuvant compound; 200 l/ha; leaves sampled after 8 days
Text: Wheat plants (Triticum aestivum variety Melon) were cultivated in the greenhouse for 6 weeks up to development stage BBCH 39. The plants were transferred to an automatic lab track sprayer and they were sprayed with 125 g/ha epoxiconazole, 125 g/ha fluxapyroxad, and 250 g/ha of the respective Compound 1-5 according to the following parameters:
Nozzle type: Air injector, ID 120 02 (Lechler, Germany)
Subsequently to spraying, the plants were cultivated again in the greenhouse under ambient conditions. After 8 days samples of 10-15 treated leaves were cut off and weighed.
Leaves were cut into small pieces, transferred into glass bottles and washed with 50% methanol in demineralized water as washing medium for 5 min. Then, the washing medium was separated from the leaves. The leaves were washed again with washing medium for 5 min. […]
Finally, the leaves were transferred to a vial containing the extraction medium (75% methanol, 20% water and 5% HCl) and homogenized using a Polytron PT 6100 dispersing unit (Kinematica, CH) for 2 min. […] The residue was solubilized in methanol/water 50:50 and analyzed by HPLC-MS/MS.
An Agilent 1100 series HPLC coupled to an Applied Biosystems API 3000 triple quadrupole mass spectrometer, equipped with an electro spray ionization source, was used. […] According to the recovery rate the measured sample values were corrected. […]

Septoria and Brown rust = experiment: Field trial winter wheat, yield; assay type: in vivo, winter wheat (var. Akteur); settings: for Yield Winter Wheat, Relative Yield (%): half rate (N/2) Epoxiconazole SC 125 applied twice at BBCH 32 and 51, adjuvant 150 ml/ha in tank mix, comparative experiment = 100.0
Method: (§1) Field studies were conducted on a Parabraunerde soil in accordance with GEP in southern Germany on commercially planted winter wheat (var. Akteur) and winter rapeseed (var. Genie), respectively, exposed to a maritime climate. The standard experimental design was a randomized complete block with 4 replicates. There was no artificial infestation. Fungicides were applied at their label rate (N) and when mixed with adjuvants in the tank, at half rate (N/2). Dose rate of adjuvants was 150 ml/ha. Efficacy was measured by yield in dt/ha. Following the analysis of variance a mean separation test (Student-Newman-Keuls) was applied at a 5% significance level. All treatments were fully selective.
Spray volume was 200 l/ha applied with an AirMix 110-03 nozzle at a pressure of 1.9 bar. Plots were in 2.5 m by 7 m large. Epoxiconazole SC 125 with a dispersing additive (based on naphthalene sulfonic acid formaldehyde condensation product, sodium salt) was applied twice at the growth stages (BBCH) 32 and 51. During the course of trial, there was a natural infestation of Septoria and Brown rust. In each treatment, the dose rate of adjuvants was 150 ml/ha.
(§2) For a quantitative measure, the yield of each treatment was determined.

Sclerotinia sp. = experiment: Field trial rapeseed, yield; assay type: in vivo, winter rapeseed (var. Genie); settings: half rate (N/2) Cantus Gold SC applied at BBCH 51; adjuvant 150 ml/ha in tank mix; comparative experiment = 100.0
Method: as §1
Spray volume was 250 l/ha applied with an AirMix 110-03 nozzle at a pressure of 2.1 bar. Plots were in 3 m by 7 m large. Cantus® Gold SC (200 g/l Boscalid and 200 g/l Dimoxystrobin with a dispersing additive based on benzenesulfonic acid, hydroxy-, polymer with formaldehyde, phenol and urea, sodium salt) was applied at the growth stage (BBCH) 51 of rapeseed on a Parabraunerde soil. During the course of trial, there was a natural infestation of Sclerotinia sp. In each treatment, the dose rate of adjuvants was 150 ml/ha.
as §2

Compound	Infected leaf area 2,5 g/ha dose rate (Puccinia triticina; epoxiconazole 2,5 g/ha + 100 ppm (20 g/ha) adjuvant compound) [%]	Infected leaf area 10 g/ha dose rate (Puccinia triticina; epoxiconazole 10 g/ha + 100 ppm (20 g/ha) adjuvant compound) [%]	Epoxiconazole Uptake Rate [%] (Wheat plants)	Yield Winter Wheat, Relative Yield (%) (Septoria and Brown rust)	Yield Rapeseed, Relative Yield (%) (Sclerotinia sp.)	Improvement of yield of the half rate (N/2) compared to N/2 alone, wheat (Septoria and Brown rust; N/2 epoxiconazole + adjuvant 150 ml/ha, Student-Newman-Keuls, 5% significance level)
Fc1ccc([C@]2(Cn3cncn3)O[C@H]2c2ccccc2Cl)cc1 (racemic) [epoxiconazole]	78	48	19	103.5		
CCCCCCCCC(O)COCCOCCOCCOCCOCCOCCOCCOCCOCCOCC(CC)CCCC (stereo not shown) [Compound C]				109.4	104.6	significant improvements
